What is called Ki is the dissociation constant of the complex between target and ligand, obtained from inhibition or displacement. One may read the EC50 as the concentration giving half of the maximal effect.

Assay [1] concerns the target GST-Bcl-XL (Homo sapiens, UniProt Q07817). The experiment in a line: TR-FRET binding assay, GST-Bcl-XL with F-Bak peptide probe. The settings on record: TR-FRET Binding Affinity, GST-Bcl-XL, F-Bak peptide probe. Summed up: (§1)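 Competitive TR-FRET: GST-fusion protein, fluorescent Bak peptide probe and Tb-labelled anti-GST antibody incubated with compound dilution series (starting 50 μM as 2× stock, 10% DMSO) for 3 h at RT. Excitation 340/35 nm; Ki derived via Wang's exact competitive-binding equation.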
In general terms: TR-FRET usually uses a lanthanide donor and a delayed reading to cut background.

The test system of assay [2] is FL5.12/Bcl-2 cells. The experiment in a line: FL5.12/Bcl-2 cell viability assay under IL-3 withdrawal (CellTitre Glo). Format: cell-based, murine. The following applies: Mus musculus, IL-3 withdrawn 48 hrs, then 24 hrs with compound. Summed up: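 Viability measured with CellTiter-Glo after 24 h compound treatment at various concentrations, following 48 h IL-3 withdrawal (no WEHI-3B medium). Cells: prolymphocytic mouse FL5.12 line stably transfected to overexpress Bcl-2, cultured at 37 °C, 5% CO2.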

For assay [3], the target named is GST-Bcl-2 (Homo sapiens, UniProt P10415). The experiment in a line: TR-FRET binding assay, GST-Bcl-2 with F-Bak peptide probe. The following applies: TR-FRET Binding Affinity, GST-Bcl-2, F-Bak peptide probe. Summed up: as §1

SMILES strings stand for the structures.

Sequence of GST-Bcl-XL (Q07817 whole entry, the tested form may be a part): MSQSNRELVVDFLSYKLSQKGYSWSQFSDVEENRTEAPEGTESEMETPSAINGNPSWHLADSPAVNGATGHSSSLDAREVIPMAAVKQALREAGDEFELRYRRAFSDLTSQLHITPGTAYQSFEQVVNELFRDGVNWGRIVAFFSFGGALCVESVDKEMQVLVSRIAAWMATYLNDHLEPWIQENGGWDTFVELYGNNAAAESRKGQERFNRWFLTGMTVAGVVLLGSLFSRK
Sequence of GST-Bcl-2 (P10415 whole entry): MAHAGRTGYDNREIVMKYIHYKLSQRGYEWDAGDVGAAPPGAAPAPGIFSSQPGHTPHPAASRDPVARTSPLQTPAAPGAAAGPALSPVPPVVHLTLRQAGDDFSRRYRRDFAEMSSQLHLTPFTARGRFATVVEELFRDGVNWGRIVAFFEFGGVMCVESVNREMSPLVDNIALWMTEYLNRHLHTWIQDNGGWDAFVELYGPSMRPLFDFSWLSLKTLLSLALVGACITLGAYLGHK

With `CC1(C)CCC(CN2CCN(c3ccc(C(=O)NS(=O)(=O)c4ccc(NCCCN5CCCC5=O)c([N+](=O)[O-])c4)c(Oc4ccc5[nH]ccc5c4)c3)CC2)=C(c2ccc(Cl)cc2)C1` [Example 374, 4-(4-{[2-(4-chlorophenyl)-4,4-dimethylcyclohex-1-en-1-yl]methyl}piperazin-1-yl)-2-(1H-indol-5-yloxy)-N-[(3-nitro-4-{[3-(2-oxopyrrolidin-1-yl)propyl]amino}phenyl)sulfonyl]benzamide], the Ki in assay [1] is > 660 nM; in assay [3], 2.27 nM. Also, in assay [2], the EC50 was > 500 nM.
With `CC1(C)CCC(CN2CCN(c3ccc(C(=O)NS(=O)(=O)c4ccc(Nc5ccc(O)cc5)c([N+](=O)[O-])c4)c(Oc4ccc5[nH]ccc5c4)c3)CC2)=C(c2ccc(Cl)cc2)C1` [Example 375, 4-(4-{[2-(4-chlorophenyl)-4,4-dimethylcyclohex-1-en-1-yl]methyl}piperazin-1-yl)-N-({4-[(4-hydroxyphenyl)amino]-3-nitrophenyl}sulfonyl)-2-(1H-indol-5-yloxy)benzamide], the Ki is > 660 nM in assay [1] and 11.3 nM in assay [3]. Besides, the EC50 in assay [2] is > 500 nM.
With `CC1(C)CCC(CN2CCN(c3ccc(C(=O)NS(=O)(=O)c4ccc(NCCc5ccc(S(N)(=O)=O)cc5)c([N+](=O)[O-])c4)c(Oc4ccc5[nH]ccc5c4)c3)CC2)=C(c2ccc(Cl)cc2)C1` [Example 376, N-{[4-({2-[4-(aminosulfonyl)phenyl]ethyl}amino)-3-nitrophenyl]sulfonyl}-4-(4-{[2-(4-chlorophenyl)-4,4-dimethylcyclohex-1-en-1-yl]methyl}piperazin-1-yl)-2-(1H-indol-5-yloxy)benzamide], the Ki in assay [1] is > 660 nM; in assay [3], 22.4 nM. In addition, in assay [2], the EC50 was > 500 nM.
For the compound `CC1(C)CCC(CN2CCN(c3ccc(C(=O)NS(=O)(=O)c4ccc(NCCCn5ccnc5)c([N+](=O)[O-])c4)c(Oc4ccc5[nH]ccc5c4)c3)CC2)=C(c2ccc(Cl)cc2)C1` [Example 377, 4-(4-{[2-(4-chlorophenyl)-4,4-dimethylcyclohex-1-en-1-yl]methyl}piperazin-1-yl)-N-[(4-{[3-(1H-imidazol-1-yl)propyl]amino}-3-nitrophenyl)sulfonyl]-2-(1H-indol-5-yloxy)benzamide], the Ki in assay [1] was 325 nM; in assay [3], 0.14 nM. Moreover, the EC50 in assay [2] turned out to be 85.7 nM.
`C[C@H](Nc1ccc(S(=O)(=O)NC(=O)c2ccc(N3CCN(CC4=C(c5ccc(Cl)cc5)CC(C)(C)CC4)CC3)cc2Oc2ccc3[nH]ccc3c2)cc1[N+](=O)[O-])c1ccccc1` [Example 378, 4-(4-{[2-(4-chlorophenyl)-4,4-dimethylcyclohex-1-en-1-yl]methyl}piperazin-1-yl)-2-(1H-indol-5-yloxy)-N-[(3-nitro-4-{[(1S)-1-phenylethyl]amino}phenyl)sulfonyl]benzamide]: the Ki in assay [1] is > 660 nM; in assay [3], 63 nM. Besides, in assay [2], the EC50 was > 500 nM.
On the same counts, the results for `CC1(C)CCC(CN2CCN(c3ccc(C(=O)NS(=O)(=O)c4cc(F)c(NCC5CCOCC5)cc4Cl)c(Oc4ccc5[nH]ccc5c4)c3)CC2)=C(c2ccc(Cl)cc2)C1` [Example 379, N-({2-chloro-5-fluoro-4-[(tetrahydro-2H-pyran-4-ylmethyl)amino]phenyl}sulfonyl)-4-(4-{[2-(4-chlorophenyl)-4,4-dimethylcyclohex-1-en-1-yl]methyl}piperazin-1-yl)-2-(1H-indol-5-yloxy)benzamide] are > 660 nM, 256 nM and > 500 nM.
The like results for `COCCOCCSc1ccc(S(=O)(=O)NC(=O)c2ccc(N3CCN(CC4=C(c5ccc(Cl)cc5)CC(C)(C)CC4)CC3)cc2Oc2ccc3[nH]ccc3c2)cc1[N+](=O)[O-]` [Example 380, 4-(4-{[2-(4-chlorophenyl)-4,4-dimethylcyclohex-1-en-1-yl]methyl}piperazin-1-yl)-2-(1H-indol-5-yloxy)-N-[(4-{[2-(2-methoxyethoxy)ethyl]thio}-3-nitrophenyl)sulfonyl]benzamide] were, in that order, 175 nM, 0.083 nM and 68.5 nM.
For the compound `COCCOCCSc1ccc(S(=O)(=O)NC(=O)c2ccc(N3CCN(CC4=C(c5ccc(Cl)cc5)CC(C)(C)CC4)CC3)cc2Oc2cccc3[nH]ccc23)cc1[N+](=O)[O-]` [Example 381, 4-(4-{[2-(4-chlorophenyl)-4,4-dimethylcyclohex-1-en-1-yl]methyl}piperazin-1-yl)-2-(1H-indol-4-yloxy)-N-[(4-{[2-(2-methoxyethoxy)ethyl]thio}-3-nitrophenyl)sulfonyl]benzamide], the values for the Ki in assay [1] and in assay [3] were 24.2 nM and 0.054 nM, respectively. In assay [2], the EC50 was 71.8 nM.
Turning to `CC1(C)CCC(CN2CCN(c3ccc(C(=O)NS(=O)(=O)c4ccc(S(C)(=O)=O)cc4)c(Oc4ccc5[nH]ccc5c4)c3)CC2)=C(c2ccc(Cl)cc2)C1` [Example 382, 4-(4-{[2-(4-chlorophenyl)-4,4-dimethylcyclohex-1-en-1-yl]methyl}piperazin-1-yl)-2-(1H-indol-5-yloxy)-N-{[4-(methylsulfonyl)phenyl]sulfonyl}benzamide], the Ki in assay [1] is > 660 nM; in assay [3] it was 1.15 nM. Also, in assay [2], the EC50 was > 500 nM.
As for `CC1(C)CCC(CN2CCN(c3ccc(C(=O)NS(=O)(=O)c4ccc(S(C)(=O)=O)cc4)c(Oc4cccc5[nH]ccc45)c3)CC2)=C(c2ccc(Cl)cc2)C1` [Example 383, 4-(4-{[2-(4-chlorophenyl)-4,4-dimethylcyclohex-1-en-1-yl]methyl}piperazin-1-yl)-2-(1H-indol-4-yloxy)-N-{[4-(methylsulfonyl)phenyl]sulfonyl}benzamide], the Ki is > 660 nM in assay [1] and 2.17 nM in assay [3]. In addition, the EC50 in assay [2] is > 500 nM.
On the same counts, the results for `CC1(C)CCC(CN2CCN(c3ccc(C(=O)NS(=O)(=O)c4ccc(OCC5CCOC(C)(C)C5)c([N+](=O)[O-])c4)c(Oc4ccc5[nH]ccc5c4)c3)CC2)=C(c2ccc(Cl)cc2)C1` (stereo not drawn) [Example 384, 4-(4-{[2-(4-chlorophenyl)-4,4-dimethylcyclohex-1-en-1-yl]methyl}piperazin-1-yl)-N-({4-[(2,2-dimethyltetrahydro-2H-pyran-4-yl)methoxy]-3-nitrophenyl}sulfonyl)-2-(1H-indol-5-yloxy)benzamide] are > 660 nM, 0.076 nM and 101 nM.
On to `CC1(C)CCC(CN2CCN(c3ccc(C(=O)NS(=O)(=O)c4cnc(OCC5(F)CCOCC5)c(C#N)c4)c(Oc4ccc5[nH]ccc5c4)c3)CC2)=C(c2ccc(Cl)cc2)C1` [Example 385, 4-(4-{[2-(4-chlorophenyl)-4,4-dimethylcyclohex-1-en-1-yl]methyl}piperazin-1-yl)-N-({5-cyano-6-[(4-fluorotetrahydro-2H-pyran-4-yl)methoxy]pyridin-3-yl}sulfonyl)-2-(1H-indol-5-yloxy)benzamide], for which the Ki in assay [1] worked out at 130 nM; in assay [3], 0.062 nM. In addition, in assay [2], the EC50 is 56.4 nM.
`CC1(C)CCC(CN2CCN(c3ccc(C(=O)NS(=O)(=O)c4cnc(OCC5CCOCC5)c(C#N)c4)c(Oc4cccc5[nH]ccc45)c3)CC2)=C(c2ccc(Cl)cc2)C1` [Example 386, 4-(4-{[2-(4-chlorophenyl)-4,4-dimethylcyclohex-1-en-1-yl]methyl}piperazin-1-yl)-N-{[5-cyano-6-(tetrahydro-2H-pyran-4-ylmethoxy)pyridin-3-yl]sulfonyl}-2-(1H-indol-4-yloxy)benzamide]: the inhibitory constant (Ki) in assay [1] was 118 nM; in assay [3], 0.239 nM. Moreover, the EC50 in assay [2] was 154 nM.
Consider `CC1(C)CCC(CN2CCN(c3ccc(C(=O)NS(=O)(=O)c4cnc(OCC5CCOCC5)c(Cl)c4)c(Oc4cccc5[nH]ccc45)c3)CC2)=C(c2ccc(Cl)cc2)C1` [Example 387, 4-(4-{[2-(4-chlorophenyl)-4,4-dimethylcyclohex-1-en-1-yl]methyl}piperazin-1-yl)-N-{[5-chloro-6-(tetrahydro-2H-pyran-4-ylmethoxy)pyridin-3-yl]sulfonyl}-2-(1H-indol-4-yloxy)benzamide], for which the results for the Ki in assay [1] and in assay [3] were 280 nM and 0.162 nM, respectively. Also, the EC50 in assay [2] worked out at 86.5 nM.
Take `CC1(C)CCC(CN2CCN(c3ccc(C(=O)NS(=O)(=O)c4cnc(OCCN5CCOCC5)c(C#N)c4)c(Oc4ccc5[nH]ccc5c4)c3)CC2)=C(c2ccc(Cl)cc2)C1` [Example 388, 4-(4-{[2-(4-chlorophenyl)-4,4-dimethylcyclohex-1-en-1-yl]methyl}piperazin-1-yl)-N-{[5-cyano-6-(2-morpholin-4-ylethoxy)pyridin-3-yl]sulfonyl}-2-(1H-indol-5-yloxy)benzamide]: the Ki was determined as 34.8 nM in assay [1] and 0.188 nM in assay [3]. Moreover, the EC50 in assay [2] worked out at 82.9 nM.
Take `CC1(C)CCC(CN2CCN(c3ccc(C(=O)NS(=O)(=O)c4ccc(OC5CCN(C6CCOCC6)CC5)c([N+](=O)[O-])c4)c(Oc4ccc5[nH]ccc5c4)c3)CC2)=C(c2ccc(Cl)cc2)C1` [Example 389, 4-(4-{[2-(4-chlorophenyl)-4,4-dimethylcyclohex-1-en-1-yl]methyl}piperazin-1-yl)-2-(1H-indol-5-yloxy)-N-({3-nitro-4-[(1-tetrahydro-2H-pyran-4-ylpiperidin-4-yl)oxy]phenyl}sulfonyl)benzamide]: the Ki stood at 67.2 nM in assay [1] and 0.098 nM in assay [3]. For the same compound, the EC50 in assay [2] turned out to be 28.1 nM.

For the origin of these results see US9073855B2, “BCL-2 selective apoptosis-inducing agents for the treatment of cancer and immune diseases” (AbbVie Inc., priority 2008, dated 2015).
